From US8772029B2, “Modulation of oocyte meiotic progression and oocyte activation” (Northwestern University, priority 2011, dated 2014)

Assays:
CCNB1 = experiment: Western blot for CCNB1 in oocytes; format: cell-based, mouse; conditions: oocytes cultured with 10 μM TPEN during the MI-MII transition
Protocol: Western blotting was performed essentially as previously described (Bernhardt et al., 2010). Briefly, 15 to 50 cumulus-denuded oocytes were transferred in a minimal amount of medium to microcentrifuge tubes and immediately lysed in 8 μL of 1x SDSPAGE Sample Buffer (Laemmli, 1970). SDS-PAGE gels were run using the Invitrogen NuPAGE system and transferred to Immobilon-P PVDF membranes (Millipore, Billerica, MA). Blocking and antibody incubations were in 2% w/v ECL Advanced Blocking Reagent (Amersham) in TBS-T (20mM Tris, pH7.4, 137mM NaC1, 0.1% Tween20 v/v). Anti-CCNB1antibody was diluted 1:500, anti-FBXO43 was used at 1:1000 dilution, and anti-tubulin antibody was used at 1:10,000. HRP-conjugated secondary antibodies were diluted 1:10,000. Detection was performed using Amersham ECL Advanced detection reagent. BIOMAX MR films (Kodak, Rochester, NY) were exposed and developed, or an Alpha-Innotech (San Learndo, CA) MultiImage II system was used.

oocytes = conditions: literature (Kim et al 2010, Bernhardt et al 2011); cited from earlier work

In the case of `c1ccc(CN(CCN(Cc2ccccn2)Cc2ccccn2)Cc2ccccn2)nc1` [TPEN, N,N,N′,N′-tetrakis(2-pyridylmethyl)ethylenediamine], the CCNB1 protein levels (CCNB1) is listed as “low” and the “meiotic arrest on TPEN treatment during the MI-MII transition” value (oocytes) is listed as “causes meiotic arrest at telophase-I”.
